Values of other authors, collected in US20030022912A1, “Rapid-onset medicament for treatment of sexual dysfunction” (priority 2001, published 2003).

Conditions: human subjects; sublingual administration; drug as free base except where a footnote notes a salt

CN1CCc2cccc3c2[C@H]1Cc1ccc(O)c(O)c1-3 [apomorphine] and CN(C)CCCN1c2ccccc2CCc2ccc(Cl)cc21 [clomipramine] are within 1.5-fold of each other in “sublingual Tmax” value: 1.02 h for the first, 1.5 h for the second.

Compared with COc1c2occc2cc2ccc(=O)oc12 [methoxsalen], CN1C(=O)C(O)N=C(c2ccccc2)c2cc(Cl)ccc21 (centres unmarked) [temazepam] is 2.6-fold higher in “sublingual Tmax” value: 0.417 h for the first, 1.08 h for the second.

First: O=[N+]([O-])OCC(CO[N+](=O)[O-])O[N+](=O)[O-] [nitroglycerin]
Second: CC(C)NCC(O)c1ccc(NS(C)(=O)=O)cc1 (centres unmarked) [sotalol]
The “sublingual Tmax” value of the first is 42-fold lower: 0.05 h for the first, 2.1 h for the second.

Going from C#CCN(C)[C@H](C)Cc1ccccc1 [selegiline] to CCCc1nn(C)c2c(=O)[nH]c(-c3cc(S(=O)(=O)N4CCN(C)CC4)ccc3OCC)nc12 [sildenafil], the “sublingual Tmax” value rises from 0.167 h to 1 h (6-fold).
